Data taken from patent US5506102A (priority 1993, dated 1996).

Experiments:
[1] = test system: PR-B (co-expressed with PR-A); assay: PR-A effect on PR-B mediated PRE2 tk-LUC transcription (co-transfection); type: cell-based, human
Method: (§1) FIGS. 4A-4B are a series of graphs showing CV-1 ([…]) or HepG2 (FIG. 4B) cells that were transiently transfected with either […] of phPR-B or phPR-A alone, or phPR-B in the presence of increasing concentrations of phPR-A, together with 5 µg/ml of the PRE2 tk-LUC reporter and 5 µg/ml of pCH110 as an internal control. HeLa cells (FIG. 4C) were transfected with either phPR-B or phPR-A together with 5 µg/ml of the pTAT2950 reporter and 5 µg/ml of pCH110 as an internal control. […] The relative luciferase activity is calculated by dividing the normalized luciferase value at a given point by that obtained in the absence of transfected receptor or ligand. The data shown represent the mean +/- average deviation from the mean of triplicate estimations;
(§2) Both reporter plasmids were digested with XhoI and HindIII restriction enzymes and a 6.7 Kb fragment from MMTV-LUC and a 0.12 Kb fragment from PRE2 tk-CAT were isolated and ligated, resulting in a plasmid called PRE2 tk-LUC.
(§3) Cells were seeded in 12-well, 96-well or 10 cm tissue culture plates. […] 20 μg of DNA/ml of transfection buffer were used in each transfection reaction. […]

[2] = test system: glucocorticoid receptor (GR); assay: GR transcriptional activity on MMTV-LUC, CV-1 cells, GR co-expressed with PR-A; type: cell-based; conditions: 1440 min
Method: Cells were seeded in 12-well, 96-well or 10 cm tissue culture plates. […] 20 μg of DNA/ml of transfection buffer were used in each transfection reaction. In this mix, the concentration of the luciferase plasmids and that of the internal control plasmid pCH110 (Pharmacia, Inc.), which contains the gene for the β-galactosidase enzyme, remained constant ([…] of each plasmid DNA), while the receptor plasmid concentration varied as indicated for each experiment. Different amounts of receptor parental plasmid, pSV2-neo (Dr. Bert O'Malley, Baylor College of Medicine, Houston, Tex.) was included to keep constant the total amount of the SV40 enhancer vectors. pGEM4 plasmid DNA (Promega Biotech, Madison, Wis.) was added to balance the total DNA concentration to 20 g/reaction. For the 96-well plate experiments, transfections were performed on a Biomek 1000 Automated Laboratory Workstation (Beckman Instruments, Fullerton, Calif.).
Cells were seeded 24 hours prior to transfection in the fiat-bottom tissue culture plates ([…]) in phenol red-free DMEM containing 10% FCS. […] Using calcium phosphate co-precipitation, DNA solution was added dropwise with vortexing into an equal volume of 2X HBS pH 6.9 (280 mM NaCl. 50 mM HEPES, 1.5 mM Na2 HPO4) and precipitates were allowed to form for 20 minutes. Cells were transfected ( […] of DNA mix/well) for 6 hours and then washed with phosphate-bufferedsaline (PBS) to remove the precipitate. Cells were incubated for an additional 24 hours in phenol red-free medium containing 10% charcoal-treated FCS, with or without hormones as indicated in the text. Cell extracts were prepared as described by Berger et al., Supra, and assayed for luciferase and β-galactosidase activities. All determinations were performed in triplicates in at least two independent experiments, and were normalized for transfection efficiency by using β-galactosidase as an internal control.

PR-A = molecular target: T1, PR-A (Homo sapiens, UniProt P06401); assay: PR-A transactivation of PRE2 tk-LUC; type: cell-based; design: PRE2 tk-LUC in CV-1
T1 sequence (P06401 165-933): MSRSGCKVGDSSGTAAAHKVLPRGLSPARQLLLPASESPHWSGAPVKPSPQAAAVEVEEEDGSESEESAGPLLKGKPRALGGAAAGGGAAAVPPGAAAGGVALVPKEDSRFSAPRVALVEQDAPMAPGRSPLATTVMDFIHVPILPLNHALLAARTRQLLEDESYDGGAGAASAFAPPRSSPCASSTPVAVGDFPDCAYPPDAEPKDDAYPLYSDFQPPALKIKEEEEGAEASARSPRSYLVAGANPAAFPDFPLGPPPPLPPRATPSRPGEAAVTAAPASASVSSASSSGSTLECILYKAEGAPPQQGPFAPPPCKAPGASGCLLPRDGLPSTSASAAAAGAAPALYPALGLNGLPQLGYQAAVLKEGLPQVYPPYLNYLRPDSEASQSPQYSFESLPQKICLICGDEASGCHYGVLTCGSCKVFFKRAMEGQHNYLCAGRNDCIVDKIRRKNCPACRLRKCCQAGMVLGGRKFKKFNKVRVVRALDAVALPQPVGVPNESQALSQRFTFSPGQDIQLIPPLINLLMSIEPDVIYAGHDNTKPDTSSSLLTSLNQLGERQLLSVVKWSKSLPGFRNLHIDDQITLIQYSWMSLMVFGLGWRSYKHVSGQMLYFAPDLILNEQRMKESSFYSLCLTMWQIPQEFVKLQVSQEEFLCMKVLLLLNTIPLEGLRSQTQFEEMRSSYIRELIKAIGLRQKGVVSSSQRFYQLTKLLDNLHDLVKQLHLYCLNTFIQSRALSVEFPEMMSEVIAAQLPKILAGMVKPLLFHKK
Method: as §1, §2, §3

[3] = CV-1, 10^-7 M progesterone, FIG. 4A
[4] = HepG2, 10^-7 M progesterone, FIG. 4B

CC(=O)[C@H]1CC[C@H]2[C@@H]3CCC4=CC(=O)CC[C@]4(C)[C@H]3CC[C@]12C [progesterone]
PR-A effect on PR-B activity on PRE2 tk-LUC [1, 3]: repression of PR-B activity | PR-A effect on PR-B transcriptional activity on PRE2 tk-LUC [1, 4]: no effect on PR-B transcriptional activity | reduction in GR activity ([2]; GR and PR-A, 10^-9 M progesterone, 5×10^-8 M dexamethasone, FIG. 6, 0.001 µM): 50% | GR activity, of induced control levels ([2]; presence of progesterone and dexamethasone, PR-A co-expressed, FIG. 5A, 0.1 µM): 2% | PR-A transcriptional activity on PRE2 tk-LUC (PR-A; [3]): transcriptionally inactive | PR-A transcriptional activity on PRE2 tk-LUC (PR-A; [4]): activator of transcription
